These results are taken from patent US10301263B2, “Anticonvulsant compound” (Royal Holloway and Bedford New College, priority 2014, dated 2019).

Data set [1] deals with rat entorhinal cortex-hippocampus slices. The data set can be described thus: PTZ-induced epileptiform activity in entorhinal cortex-hippocampus slices (CA1 field recording). Type of data set: cell-based. As for the experimental part: The preparation of entorhinal cortex-hippocampus slices and electrophysiological recording in CA1 were described previously (Armand et al., 1998; Chang and Walker, 2011). In brief, male rats (50-150 g) were decapitated after killing by intraperitoneal injection with an overdose of pentobarbitone (500 mg/kg). The brain was removed and preserved in oxygenated ice-cold sucrose solution in mM: NaCl 87, KCl 2.5, MgCl2 7, CaCl2 0.5, NaH2PO4 1.25, NaHCO3 26.2 sucrose 75, glucose 3. Transverse slices (350 μm) were prepared with a vibratome (VIBRATOME® 1500, Intracel Ltd) and were then stored in an interface chamber containing artificial cerebrospinal fluid solution (aCSF) in mM: NaCl 119, KCl 2.5, MgSO4 1.3, CaCl2 2.5, NaH2PO4 1, NaHCO3 26.2 glucose 16.6. The slices were stored for over one hour. During the experiment, the slices were transferred from the interface chamber into a submerged recording chamber and continuously perfused with prewarmed (about 36° C.) oxygenated (95% O2, 5% CO2) aCSF. A field potential recording was made by placing a glass microelectrodes filled with aCSF solution in stratum radiatum of CA1. A bipolar stimulating electrode was positioned in the Schaffer collateral/commissural fiber pathway in stratum radiatum to confirm slice viability. […] Anticonvulsant effects were evaluated by measuring the frequency of the discharges every minute.

In data set [2] the test system is histone deacetylase (HDAC). The data set can be described thus: HDAC activity assay (fluorescent kit, human nuclear enzyme extracts from HeLa cells). Type of data set: biochemical. The protocol: FIG. 4b is a graph showing quantification of a histone deacetylase (HDAC) inhibition assay employing human nuclear enzyme extracts (from HeLa cells) as the source of HDAC activity shown as fitted dose-response curves for 4-BCCA;
Histone deacetylase activity was analyzed by using an in vitro commercial assay kit, the HDAC fluorescent activity assay/drug discovery kit HDAC activity (Biomol, Plymouth Meeting, Pa.). The assay was conducted at room temperature according to the manufacturer's protocol, using Trichostatin A (a HDAC inhibitor; at 1 μM concentration) as a positive control. Data were derived from at least triplicate experiments with each experiment comprising at least duplicate measurements (n=6) normalized to controls (without VPA or fatty acids).

The test system of data set [3] is 6 Hz corneal stimulation seizures in CF1 mice. Nature of the data set: 6 Hz psychomotor seizure test. Type of data set: in vivo. As to conditions: Mus musculus, ip, 32 mA for 3 s. The protocol: Adult male CF1 mice (18-25 g) were pretreated intraperitoneally (i.p.) with each compound at 100-150 mg/kg. After pretreatment, each mouse was given a drop of 0.5% tetracaine hydrochloride to each eye, following by low-frequency (6 Hz) stimulation (32 mA) for 3 seconds delivered through corneal electrodes. Animals were manually restrained and released immediately following the stimulation and observed for the presence or absence of seizure activity at five time points (1/4, 1/2, 1, 2, and 4 hours). Typically, the 6 Hz stimulation results in a seizure characterized by a minimal clonic phase that is followed by stereotyped, automatistic behaviors, including twitching of the vibrissae, and Straub-tail. Animals not displaying such behaviors were considered protected.
The inventors first employed a low frequency (6 Hz), long duration (3 s) corneal stimulation model because numerous second generation anti-epileptic drugs show poor seizure control in this assay (and so such a model may provide evidence of efficacy in drug resistant epilepsy). In this model, compounds are pre-administered to mice via i.p. injection and mice are challenged with sufficient current to elicit a psychomotor response (32 mA for 3 s) (Toman et al., 1952). The model causes forelimb clonus and then automatistic behavior characteristic of limbic epilepsy in humans. […]

The subject of data set [4] is Metrazol-induced clonic seizures. The data set can be described thus: Subcutaneous Metrazol seizure threshold test (scMET). Type of data set: in vivo, mice. As to conditions: i.p. The protocol:
Subcutaneous injection of Metrazol produces clonic seizures in animals. […] Animals were pretreated with each compound (100 mg/kg) in a similar manner to the MES test. Seizure activity was induced by administration of Metrazol (CD97: 85 mg/kg mice; 70 mg/kg rats) into skin in the midline of the neck.

For data set [5], the system named is corneal kindled CF1 mice. The data set can be described thus: Corneal kindled mouse model (CKM). Type of data set: in vivo. Conditions: i.p. The protocol: This model involves the use of corneal kindled mouse model for prediction of efficacy in human partial seizures (Rowley and White, 2010). Adult male CF1 mice (18-25 g) mice were stimulated through corneal electrodes (3 mA, 60 Hz, 3 seconds) after administration of 0.5% tetracaine hydrochloride to each eye. This procedure was carried out twice daily for an average of 12 days.
After 5-7-days stimulation-free period once the mice were fully kindled, the test compounds were administrated (100 mg/kg, i.p.). Mice in each group were then tested at various time points (0.25, 0.5, 1, 2, 4 hours) after drug dosing. Mice displaying a seizure score <3 are considered protected.

Data set [6] deals with MES-induced seizures. Nature of the data set: Maximal electroshock test (MES). As to conditions: Mus musculus, ip. Type of data set: in vivo, mice. As for the experimental part: The MES is a model for generalized tonic-clonic seizures which provides an indication of a compound's ability to prevent seizure spread when all neuronal circuits in the brain are maximally active. Animals are pretreated with compounds (100-125 mg/kg) by i.p. injection. Seizure activity was induced by delivery of 60 Hz of alternating current (50 mA in mice, 150 in rats) for 0.2 s through corneal electrodes which had been primed with an electrolyte solution containing an anesthetic agent (0.5% tetracaine HCl). An animal is considered “protected” from MES-induced seizures upon abolition of the hind limb tonic extensor component of the seizure (Swinyard et al., 1995; White et al., 1995; White et al., 2007).

Data set [7] addresses AMPA receptors. The data set can be described thus: AMPA receptor mediated current, AMPA receptors expressed in oocytes (FIG. 1). Type of data set: cell-based. As for the experimental part:
Xenopus laevis oocytes were purchased from the European Xenopus Resource Centre, University of Portsmouth.
The bath solutions were perfused at a rate of 10 ml/min.

The conditions of data set [8]: DSMV IV, 2000; cited from earlier work.
The test system of data set [9] is rat entorhinal cortex-hippocampus slices. Conditions: PTZ-induced seizure-like activity in rat hippocampal slices; Chang et al., 2013; cited from earlier work.
Data set [10] concerns Metrazol-induced clonic seizures. Conditions: scMET; Rowley and White, 2010; cited from earlier work.
The test system of data set [11] is corneal kindled CF1 mice. Conditions: corneal kindled mouse; cited from earlier work.

Consider `CCCC[C@H]1CC[C@H](C(=O)O)CC1` [Compound 4-BCCA, trans-4-butylcyclohexane carboxylic acid], for which the “epileptiform activity (frequency of PTZ-induced burst discharges)” value in data set [1] (PTZ 2 mM, K+ 6 mM, 20-40 minute treatment, n=5, 1 mM) is on record as 1.7±1.5 % of baseline. In [1] (PTZ-induced seizure-like activity in rat hippocampal slices), the “block in seizure activity” value worked out at 100%. Moreover, the HDAC inhibition entry in data set [2] (FIG. 4B dose-response) is “no HDAC inhibition”. For the same compound, the HDAC inhibitory effect result in data set [2] (upto 10 mM, HDAC extract derived from a human cell line) is “does not cause significant inhibitory effect”. The ED50 in [3] was 81 mg/kg; in data set [6], 100 mg/kg. The EC50 value is around 150 mg/kg in data set [4] and 44 mg/kg in data set [5]. Also, the “potency of AMPA receptors inhibition (as determined by IC50) relative to decanoic acid (DA) and 4-ethyloctanoic acid (4-EOA)” value in [7] is listed as “comparable potency”.

Take `CCCC(CCC)C(=O)O` [valproic acid, 2-propylpentanoic acid]: in [2] (HDAC extract derived from a human cell line, read-out: IC50 against HDAC), the IC50 amounted to 2300 µM. In data set [8], the “concentrations found in plasma” value is 400 to 700 µM. Besides, the “reduction in seizure activity” value in data set [9] is reported as 23%. The “equivalent effect (to EC50) dose” value in [10] is 191 mg/kg. Also, the “equivalent activity (to EC50) dose” value in [11] is recorded as 174 mg/kg.

A word on the ED50: it is the midpoint of the dose-response relation. Read a high ED50 as a need for a large dose. As usually defined, the IC50 is the concentration at which inhibition is half-maximal.
